Experimental data taken from ChEMBL document CHEMBL1201862, “PubChem BioAssay data set” (2004).
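Growth conditions: 96-well plates. Treatment: test compound, 48 hours, 5 concentrations. Analysis: linear interpolation between bracketing concentrations; unreached endpoints set to highest concentration. GI50 marks 50% less growth.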 Active and inactive are the calls of the source. Rule as the data show it: active = GI50 up to about 1.1 µM and inactive = higher.

Tests used:
Experiment in all cases: growth of human tumour cells (NCI), 48 h
A549 = system: A549
ACHN = system: ACHN
CAKI-1 = system: CAKI-1
EKVX = system: EKVX
HCC 2998 = system: HCC 2998
Hs-578T = system: Hs-578T
KM12 = system: KM12
MCF7 = system: MCF7
MDA-MB-435 = system: MDA-MB-435
Malme-3M = system: Malme-3M
NCI-H23 = system: NCI-H23
OVCAR-5 = system: OVCAR-5
RXF 393 = system: RXF 393
SK-MEL-28 = system: SK-MEL-28
SK-MEL-2 = system: SK-MEL-2
SN12C = system: SN12C
UO-31 = system: UO-31
OVCAR-8 = system: OVCAR-8
SNB-75 = system: SNB-75

Measured: GI50

OC(c1ccccc1)c1c(-c2ccccc2)oc(-c2ccccc2)c1C(O)c1ccccc1 (configuration not stated)
inactive: A549 5.73 µM | ACHN 6.14 µM | CAKI-1 15.2 µM | EKVX 5.75 µM | HCC 2998 16.8 µM | Hs-578T 13.5 µM | KM12 7.24 µM | MCF7 4.37 µM | MDA-MB-435 8.04 µM | Malme-3M 12.3 µM | NCI-H23 9.06 µM | OVCAR-5 15.6 µM | RXF 393 6.5 µM | SK-MEL-28 14.2 µM | SK-MEL-2 14.2 µM | SN12C 6.22 µM | UO-31 10.6 µM

[N-]=[N+]=Nc1ncnc2c1sc(=S)n2-c1ccccc1
inactive: A549 > 100 µM | ACHN > 100 µM | CAKI-1 > 100 µM | EKVX > 100 µM | HCC 2998 > 100 µM | KM12 > 100 µM | Malme-3M > 100 µM | NCI-H23 > 100 µM | OVCAR-5 > 100 µM | OVCAR-8 > 100 µM | RXF 393 > 100 µM | SK-MEL-28 > 100 µM | SK-MEL-2 > 100 µM | SN12C > 100 µM | SNB-75 > 100 µM | UO-31 > 100 µM

COC1(C)CNCC(C)(C)NC(=O)C(C)(OC)CNCC(C)(C)NC1=O (configuration not stated)
inactive: A549 > 100 µM | ACHN > 100 µM | CAKI-1 > 100 µM | EKVX > 100 µM | HCC 2998 > 100 µM | KM12 > 100 µM | Malme-3M > 100 µM | NCI-H23 > 100 µM | OVCAR-5 > 100 µM | OVCAR-8 > 100 µM | RXF 393 > 100 µM | SK-MEL-28 > 100 µM | SK-MEL-2 > 100 µM | SN12C > 100 µM | SNB-75 > 100 µM | UO-31 > 100 µM

C=CN1C(=O)[C@H](Oc2ccccc2)[C@@H]1c1ccccc1
inactive: A549 26.8 µM | ACHN 32 µM | EKVX 47.8 µM | HCC 2998 47.4 µM | KM12 33 µM | Malme-3M 63.2 µM | NCI-H23 21.7 µM | OVCAR-5 > 100 µM | OVCAR-8 23.8 µM | RXF 393 17.8 µM | SK-MEL-28 36.4 µM | SK-MEL-2 12.9 µM | SN12C 32.7 µM | SNB-75 15.6 µM | UO-31 36.3 µM

COc1ccccc1-c1cc(=O)c2ccccc2n1C1CC1
inactive: A549 2.84 µM | ACHN 2.2 µM | CAKI-1 3.49 µM | Hs-578T 5.3 µM | KM12 2.37 µM | MCF7 1.98 µM | MDA-MB-435 3.42 µM | NCI-H23 4.99 µM | OVCAR-5 2.72 µM | OVCAR-8 3.79 µM | RXF 393 1.84 µM | SK-MEL-2 2.69 µM | SN12C 5.08 µM | UO-31 3.85 µM

C[N+]1(C)CCC(C#N)(c2ccccc2)CC1
inactive: A549 > 100 µM | ACHN > 100 µM | CAKI-1 > 100 µM | EKVX > 100 µM | HCC 2998 > 100 µM | Hs-578T > 100 µM | KM12 > 100 µM | MCF7 > 100 µM | Malme-3M > 100 µM | NCI-H23 > 100 µM | OVCAR-5 > 100 µM | OVCAR-8 > 100 µM | RXF 393 > 100 µM | SK-MEL-28 > 100 µM | SNB-75 35.4 µM | UO-31 > 100 µM

CN(C=O)/C=C/c1cc(O)ccc1O
inactive: A549 > 78 µM | ACHN 16.1 µM | CAKI-1 20.3 µM | EKVX 40.6 µM | HCC 2998 > 63 µM | KM12 63.7 µM | Malme-3M 39.4 µM | NCI-H23 36.8 µM | OVCAR-5 40.6 µM | OVCAR-8 30.3 µM | RXF 393 18 µM | SK-MEL-28 > 42.1 µM | SK-MEL-2 35.6 µM | SN12C 20.9 µM | SNB-75 21.7 µM | UO-31 32 µM

O=C1c2ccccc2C(=O)N1C/C=N/NS(=O)(=O)c1cccc([N+](=O)[O-])c1
inactive: A549 > 100 µM | ACHN > 100 µM | CAKI-1 > 100 µM | EKVX > 100 µM | HCC 2998 > 100 µM | KM12 > 100 µM | Malme-3M > 100 µM | NCI-H23 > 100 µM | OVCAR-8 > 100 µM | RXF 393 > 100 µM | SK-MEL-2 > 100 µM | SN12C > 100 µM | SNB-75 > 100 µM | UO-31 > 100 µM

C=C1C(=O)OC2/C=C(/C)C3CC(O)C(C)(CC(OC(=O)/C(C)=C/C)C12)O3 (configuration not stated)
inactive: A549 6.61 µM | ACHN 2.49 µM | CAKI-1 1.97 µM | EKVX 3.86 µM | HCC 2998 13.2 µM | KM12 3.33 µM | Malme-3M 2.28 µM | NCI-H23 4.49 µM | OVCAR-5 8.61 µM | OVCAR-8 1.83 µM | RXF 393 1.52 µM | SK-MEL-28 2.52 µM | SK-MEL-2 2.49 µM | SN12C 3.27 µM | SNB-75 9.04 µM | UO-31 5.86 µM

O=C(Nc1nc2ccccc2n1Cc1ccccc1)NC12CC3CC(CC(C3)C1)C2
inactive: A549 71.9 µM | ACHN 44.7 µM | CAKI-1 88.9 µM | EKVX > 100 µM | HCC 2998 > 100 µM | KM12 > 100 µM | Malme-3M 39.6 µM | NCI-H23 42.9 µM | OVCAR-5 > 100 µM | OVCAR-8 > 100 µM | RXF 393 19.5 µM | SK-MEL-28 79.3 µM | SK-MEL-2 > 100 µM | SN12C 82.8 µM | SNB-75 22.4 µM | UO-31 > 100 µM

CNC1=Nc2ccc(Cl)cc2C(OP(=O)(N2CCOCC2)N2CCOCC2)=NC1
inactive: A549 > 100 µM | ACHN > 100 µM | CAKI-1 > 100 µM | EKVX 84.9 µM | HCC 2998 > 100 µM | KM12 > 100 µM | Malme-3M > 100 µM | NCI-H23 > 100 µM | OVCAR-5 > 100 µM | OVCAR-8 > 100 µM | RXF 393 > 100 µM | SK-MEL-28 > 100 µM | SK-MEL-2 > 100 µM | SN12C > 100 µM | SNB-75 > 100 µM | UO-31 > 100 µM

O=C(c1ccccc1)N1C2C3CC(OCc4ccccc4)(OCc4ccccc4)C(O3)C21 (configuration not stated)
inactive: A549 > 100 µM | ACHN > 100 µM | CAKI-1 > 100 µM | EKVX > 100 µM | HCC 2998 > 100 µM | Malme-3M > 100 µM | NCI-H23 > 100 µM | OVCAR-5 > 100 µM | OVCAR-8 > 100 µM | RXF 393 > 100 µM | SK-MEL-28 > 100 µM | SK-MEL-2 > 100 µM | SN12C > 100 µM | SNB-75 > 100 µM | UO-31 > 100 µM
